Patent US6737383B1, “Herbicidal oxadiazolidines” (priority 1999, dated 2004)

Key:
[1] = system: bedstraw; experiment: Test B pre/postemergence bedstraw; type: in vivo, Galium aparine
Outline: (§1)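 Herbicidal effect was estimated by eye on a ten-point control scale after plants spent twelve to sixteen days in a greenhouse following soil or foliar treatment. Foliar sprays targeted plants at one to four leaves; all doses were formulated in a non-phytotoxic solvent with surfactant.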

[2] = system: blackgrass; experiment: Test B pre/postemergence blackgrass; type: in vivo, Alopecurus myosuroides
Outline: as §1

[3] = system: giant foxtail; experiment: Test B pre/postemergence giant foxtail; type: in vivo, Setaria faberii
Outline: as §1

[4] = system: morningglory; experiment: Test B pre/postemergence morningglory; type: in vivo, Ipomoea hederacea
Outline: as §1

[5] = system: pigweed; experiment: Test B pre/postemergence pigweed; type: in vivo, Amaranthus retroflexus
Outline: as §1

[6] = system: rape; experiment: Test B pre/postemergence rape; type: in vivo, Brassica napus
Outline: as §1

[7] = system: soybean; experiment: Test B pre/postemergence soybean; type: in vivo, Glycine max
Outline: as §1

[8] = system: sugar beet; experiment: Test B pre/postemergence sugar beet; type: in vivo, Beta vulgaris
Outline: as §1

[9] = system: velvetleaf; experiment: Test B pre/postemergence velvetleaf; type: in vivo, Abutilon theophrasti
Outline: as §1

[10] = system: wheat; experiment: Test B pre/postemergence wheat; type: in vivo, Triticum aestivum
Outline: as §1

[11] = system: wild oat; experiment: Test B pre/postemergence wild oat; type: in vivo, Avena fatua
Outline: as §1

[12] = system: purple nutsedge; experiment: Test B pre/postemergence purple nutsedge; type: in vivo, Cyperus rotundus
Outline: as §1

[13] = system: rice; experiment: Test B flood test rice; type: in vivo, Oryza sativa
Outline: (§2)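 Plants were grown to the 2-leaf stage before treatment with test chemical, then held in a greenhouse for twelve to sixteen days. Injury was visually rated against untreated controls on a 0–10 scale, where 0 is no effect and 10 is complete control.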

[14] = system: smallflower flatsedge; experiment: Test B flood test smallflower flatsedge; type: in vivo, Cyperus difformis
Outline: as §2

[15] = system: duck salad; experiment: Test B flood test duck salad; type: in vivo, Heteranthera limosa
Outline: as §2

[16] = system: bamyardgrass; experiment: Test B flood test barnyardgrass; type: in vivo, Echinochloa crus-galli
Outline: as §2

[17] = Postemergence, Rate 62 g/ha, scale 0 to 10, 0 is no effect, 10 is complete control
[18] = Postemergence, Rate 250 g/ha, scale 0 to 10, 0 no effect, 10 complete control
[19] = Preemergence, Rate 62 g/ha, scale 0 to 10 (0 no effect, 10 complete control)
[20] = Preemergence, Rate 125 g/ha, scale 0 to 10 (0 no effect, 10 complete control)
[21] = Preemergence, Rate 250 g/ha, scale of 0 to 10 where 0 is no effect and 10 is complete control
[22] = Preemergence, Rate 500 g/ha, scale 0 (no effect) to 10 (complete control)
[23] = Rate 125 g/ha, Postemergence, scale 0 to 10, 0 no effect, 10 complete control
[24] = Rate 500 g/ha, Postemergence, scale 0 to 10, 0 no effect, 10 complete control
[25] = Rate 125 g/ha, Postemergence section (flood test species), scale 0 to 10, 0 no effect, 10 complete control
[26] = Rate 500 g/ha, listed under Postemergence (flood test species), scale 0 to 10, 0 no effect, 10 complete control
[27] = flood test, listed under Postemergence, Rate 250 g/ha, scale 0 to 10, 0 no effect, 10 complete control

With CC(C)N(C(=O)n1oc(=O)n(Cc2ccccc2)c1=O)c1ccc(F)cc1F [Compound 79] the “Bedstraw plant response rating” value [1, 17] was 3, the “Bedstraw plant response rating” value [1, 18] was 7 and the “Bedstraw plant response rating” value [1, 19] was 0. The “Plant response rating, Bedstraw” value [1, 20] was 0, the “Plant response rating, Bedstraw” value [1, 21] was 0 and the “Bedstraw plant response rating” value [1, 22] was 0. For the same molecule, the “Bedstraw plant response rating” value [1, 23] was 3, the “Bedstraw plant response rating” value [1, 24] was 8 and the “Blackgrass plant response rating” value [2, 17] was 0. For the same molecule, the “Blackgrass plant response rating” value [2, 18] was 3, the “Blackgrass plant response rating” value [2, 19] was 0 and the “Plant response rating, Blackgrass” value [2, 20] was 2. The “Plant response rating, Blackgrass” value [2, 21] was 6, the “Blackgrass plant response rating” value [2, 22] was 6 and the “Blackgrass plant response rating” value [2, 23] was 0. The “Blackgrass plant response rating” value [2, 24] was 3, the “Giant foxtail plant response rating” value [3, 17] was 0 and the “Giant foxtail plant response rating” value [3, 18] was 3. The “Giant foxtail plant response rating” value [3, 19] was 4, the “Plant response rating, Giant foxtail” value [3, 20] was 8 and the “Plant response rating, Giant foxtail” value [3, 21] was 9. For the same molecule, the “Giant foxtail plant response rating” value [3, 22] was 9, the “Giant foxtail plant response rating” value [3, 23] was 2 and the “Giant foxtail plant response rating” value [3, 24] was 4. For the same molecule, the “Morningglory plant response rating” value [4, 17] was 5, the “Morningglory plant response rating” value [4, 18] was 7 and the “Morningglory plant response rating” value [4, 19] was 0. For the same molecule, the “Plant response rating, Morningglory” value [4, 20] was 0, the “Plant response rating, Morningglory” value [4, 21] was 0 and the “Morningglory plant response rating” value [4, 22] was 0. For the same molecule, the “Morningglory plant response rating” value [4, 23] was 5, the “Morningglory plant response rating” value [4, 24] was 8 and the “Redroot pigweed plant response rating” value [5, 17] was 0. The “Redroot pigweed plant response rating” value [5, 18] was 3, the “Redroot pigweed plant response rating” value [5, 19] was 0 and the “Plant response rating, Redroot pigweed” value [5, 20] was 4. For the same molecule, the “Plant response rating, Redroot pigweed” value [5, 21] was 7, the “Redroot pigweed plant response rating” value [5, 22] was 10 and the “Redroot pigweed plant response rating” value [5, 23] was 0. The “Redroot pigweed plant response rating” value [5, 24] was 4, the “Rape plant response rating” value [6, 17] was 0 and the “Rape plant response rating” value [6, 18] was 0. For the same molecule, the “Rape plant response rating” value [6, 19] was 0, the “Plant response rating, Rape” value [6, 20] was 0 and the “Plant response rating, Rape” value [6, 21] was 0. For the same molecule, the “Rape plant response rating” value [6, 22] was 0, the “Rape plant response rating” value [6, 23] was 0 and the “Rape plant response rating” value [6, 24] was 3. The “Soybean plant response rating” value [7, 17] was 0, the “Soybean plant response rating” value [7, 18] was 1 and the “Soybean plant response rating” value [7, 19] was 0. For the same molecule, the “Plant response rating, Soybean” value [7, 20] was 0, the “Plant response rating, Soybean” value [7, 21] was 0 and the “Soybean plant response rating” value [7, 22] was 0. The “Soybean plant response rating” value [7, 23] was 1, the “Soybean plant response rating” value [7, 24] was 2 and the “Sugarbeets plant response rating” value [8, 17] was 3. The “Sugarbeets plant response rating” value [8, 18] was 4, the “Sugarbeets plant response rating” value [8, 19] was 0 and the “Plant response rating, Sugarbeets” value [8, 20] was 1. For the same molecule, the “Plant response rating, Sugarbeets” value [8, 21] was 1, the “Sugarbeets plant response rating” value [8, 22] was 2 and the “Sugarbeets plant response rating” value [8, 24] was 6. The “Velvetleaf plant response rating” value [9, 17] was 0, the “Velvetleaf plant response rating” value [9, 18] was 0 and the “Velvetleaf plant response rating” value [9, 19] was 0. For the same molecule, the “Plant response rating, Velvetleaf” value [9, 20] was 0, the “Plant response rating, Velvetleaf” value [9, 21] was 0 and the “Velvetleaf plant response rating” value [9, 22] was 3. The “Velvetleaf plant response rating” value [9, 23] was 0, the “Velvetleaf plant response rating” value [9, 24] was 3 and the “Wheat plant response rating” value [10, 17] was 0. The “Wheat plant response rating” value [10, 18] was 0, the “Wheat plant response rating” value [10, 19] was 0 and the “Plant response rating, Wheat” value [10, 20] was 0. For the same molecule, the “Plant response rating, Wheat” value [10, 21] was 0, the “Wheat plant response rating” value [10, 22] was 2 and the “Wheat plant response rating” value [10, 23] was 0. The “Wheat plant response rating” value [10, 24] was 0, the “Wild oats plant response rating” value [11, 17] was 0 and the “Wild oats plant response rating” value [11, 18] was 0. The “Wild oats plant response rating” value [11, 19] was 0, the “Plant response rating, Wild oats” value [11, 20] was 0 and the “Plant response rating, Wild oats” value [11, 21] was 3. For the same molecule, the “Wild oats plant response rating” value [11, 22] was 4, the “Wild oats plant response rating” value [11, 23] was 0 and the “Wild oats plant response rating” value [11, 24] was 0. The “Nutsedge plant response rating” value [12, 17] was 0, the “Nutsedge plant response rating” value [12, 18] was 0 and the “Nutsedge plant response rating” value [12, 19] was 0. The “Plant response rating, Nutsedge” value [12, 20] was 0, the “Plant response rating, Nutsedge” value [12, 21] was 0 and the “Nutsedge plant response rating” value [12, 22] was 0. For the same molecule, the “Nutsedge plant response rating” value [12, 23] was 0, the “Nutsedge plant response rating” value [12, 24] was 0 and the “Rice plant response rating” value [13, 17] was 0. For the same molecule, the “Rice plant response rating” value [13, 25] was 0, the “Rice plant response rating” value [13, 26] was 3 and the “Rice plant response rating” value [13, 27] was 0. The “S. Flatsedge plant response rating” value [14, 17] was 0, the “S. Flatsedge plant response rating” value [14, 25] was 0 and the “S. Flatsedge plant response rating” value [14, 26] was 10. For the same molecule, the “S. Flatsedge plant response rating” value [14, 27] was 4, the “Ducksalad plant response rating” value [15, 17] was 0 and the “Ducksalad plant response rating” value [15, 25] was 0. The “Ducksalad plant response rating” value [15, 26] was 3, the “Ducksalad plant response rating” value [15, 27] was 0 and the “Barnyardgrass plant response rating” value [16, 17] was 0. For the same molecule, the “Barnyardgrass plant response rating” value [16, 25] was 0, the “Barnyardgrass plant response rating” value [16, 26] was 9 and the “Barnyardgrass plant response rating” value [16, 27] was 3.
